Source: US20120329711A1, “GLP-1 RECEPTOR AGONIST COMPOUNDS WITH A MODIFIED N-TERMINUS” (Nordisk A/S, priority 2009, published 2012)

How the values were obtained:
human GLP-1 receptor [1] = biological target: T1, human GLP-1 receptor (Homo sapiens, UniProt P43220); assay: GLP-1 receptor binding: displacement of 125I-GLP-1 (SPA) at low and high albumin; parameters: expressed in transfected cells; membranes; conditions: 2.0% HSA; displacement of 125I-GLP-1, BHK tk-ts13 membranes
Procedure: The binding affinity of the GLP-1 receptor agonist derivatives of Examples 1-12 to the human GLP-1 receptor was measured by way of their ability to displace of ^125I-GLP-1 from the receptor.
In order to test the binding of the derivatives to albumin, the assay was performed with a low concentration of albumin (0.005%—corresponding to the residual amount thereof in the tracer), as well as with a high concentration of albumin (2.0% added).
Species (in vitro): Hamster
Biological End Point: Receptor Binding
A stable transfected cell line and a high expressing clone were selected for screening. The cells were grown at 5% CO2 in DMEM, 10% FCS, 1% Pen/Strep (Penicillin/Streptomycin) and 1.0 mg/ml of the selection marker G418.
The cells (approx. 80% confluence) were washed twice in PBS and harvested with Versene (aqueous solution of the tetrasodium salt of ethylenediaminetetraacetic acid), following which they were separated by centrifugation at 1000 rpm for 5 min. The cells/cell pellet must be kept on ice to the extent possible in the subsequent steps. […] The resulting pellet was resuspended in Buffer 2, and the protein concentration was determined. […]
Test compounds, membranes, SPA-particles and [^125I]-GLP-1(7-36)NH2 were diluted in assay buffer. […] The plates were centrifuged (1500 rpm, 10 min) and counted in Topcounter. […]

human GLP-1 receptor [2] = biological target: T1, human GLP-1 receptor; assay: In vitro potency: stimulation of cAMP formation in membranes expressing the human GLP-1 receptor (AlphaScreen cAMP Assay); format: biochemical; parameters: expressed in transfected cells; membranes; conditions: purified plasma membranes from BHK467-12A (tk-ts13) expressing the human GLP-1 receptor
Procedure: Purified plasma membranes from a stable transfected cell line, BHK467-12A (tk-ts13), expressing the human GLP-1 receptor were stimulated with the GLP-1 receptor agonist derivative in question, and the potency of cAMP production was measured using the AlphaScreen™ cAMP Assay Kit from Perkin Elmer Life Sciences. The basic principle of The AlphaScreen Assay is a competition between endogenous cAMP and exogenously added biotin-cAMP. The capture of cAMP is achieved by using a specific antibody conjugated to acceptor beads.
A stable transfected cell line and a high expressing clone were selected for screening. The cells were grown at 5% CO2 in DMEM, 5% FCS, 1% Pen/Strep (Penicillin/Streptomycin) and 0.5 mg/ml of the selection marker G418.
Cells at approximate 80% confluence were washed 2× with PBS and harvested with Versene (aqueous solution of the tetrasodium salt of ethylenediaminetetraacetic acid), centrifuged 5 min at 1000 rpm and the supernatant removed. The additional steps were all made on ice. The cell pellet was homogenised by the Ultrathurax for 20-30 sec. in 10 ml of Buffer 1 (20 mM Na-HEPES, 10 mM EDTA, pH=7.4), centrifuged 15 min at 20.000 rpm and the pellet resuspended in 10 ml of Buffer 2 (20 mM Na-HEPES, 0.1 mM EDTA, pH=7.4). […] The protein concentration was determined and the membranes stored at −80° C. until use. […]
Target sequence in this assay (P43220 24-463): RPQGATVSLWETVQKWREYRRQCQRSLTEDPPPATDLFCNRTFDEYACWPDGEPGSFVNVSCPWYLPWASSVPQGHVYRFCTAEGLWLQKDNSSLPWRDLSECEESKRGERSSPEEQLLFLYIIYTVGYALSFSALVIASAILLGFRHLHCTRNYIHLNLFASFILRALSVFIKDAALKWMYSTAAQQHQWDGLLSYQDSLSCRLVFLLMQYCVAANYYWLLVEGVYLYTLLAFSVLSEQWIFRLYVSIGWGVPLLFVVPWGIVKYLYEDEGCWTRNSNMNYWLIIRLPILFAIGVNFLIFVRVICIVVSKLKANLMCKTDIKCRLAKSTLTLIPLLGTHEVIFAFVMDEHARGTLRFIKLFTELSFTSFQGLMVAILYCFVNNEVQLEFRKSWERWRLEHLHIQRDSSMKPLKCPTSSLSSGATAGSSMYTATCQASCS

An IC50 (human GLP-1 receptor [1]) greater than 800 nM and an EC50 (human GLP-1 receptor [2]) greater than 8 nM were found for `CC[C@H](C)[C@H](NC(=O)[C@H](Cc1ccccc1)NC(=O)[C@H](CCC(=O)O)NC(=O)[C@H](CCCCNC(=O)COCCOCCNC(=O)COCCOCCNC(=O)CC[C@H](NC(=O)CCCCCCCCCCCCCCCCC(=O)O)C(=O)O)NC(=O)[C@H](C)NC(=O)[C@H](C)NC(=O)[C@H](CCC(N)=O)NC(=O)CNC(=O)[C@H](CCC(=O)O)NC(=O)[C@H](CC(C)C)NC(=O)[C@H](Cc1ccc(O)cc1)NC(=O)[C@H](CO)NC(=O)[C@H](CO)NC(=O)[C@@H](NC(=O)[C@H](CC(=O)O)NC(=O)[C@H](CO)NC(=O)[C@@H](NC(=O)[C@H](Cc1ccccc1)NC(=O)[C@@H](NC(=O)CNC(=O)[C@H](CCC(=O)O)NC(=O)CCCC(=O)c1ccccc1)[C@@H](C)O)[C@@H](C)O)C(C)C)C(=O)N[C@@H](C)C(=O)N[C@@H](Cc1c[nH]c2ccccc12)C(=O)N[C@@H](CC(C)C)C(=O)N[C@H](C(=O)N[C@@H](CCCNC(=N)N)C(=O)NCC(=O)N[C@@H](CCCNC(=N)N)C(=O)NCC(=O)O)C(C)C` [Example 11, N^9-(5-oxo-5-phenylpentanoyl), N^ε26-[2-[2-[2-[[2-[2-[2-[[(4S)-4-carboxy-4-(17-carboxyheptadecanoylamino)butanoyl]amino]ethoxy]ethoxy]acetyl]amino]ethoxy]ethoxy]acetyl]-[Arg^34]-GLP-1-(9-37)-peptide] in this work.
